Test results as given in patent US7884136B2, “Modified-release formulations of a bupropion salt” (Biovail Laboratories International S.R.L., priority 2005, dated 2011).

Assay: Shelf life stability program of bupropion HBr, 25° C./60% RH, 3 and 6 months, HPLC
Assay type: physicochemical
Details: 25° C./RH 60%; for Chromatographic purity B) (HPLC): 4) 2-N-(tert-Butyl)-aminopropiophenone / Chromatographic purity B) (HPLC): 5) single unknown impurity (each): LOQ 0.02%, LOD 0.002%; for Chromatographic purity A) (HPLC): 1) 3′-Chloropropiophenone / Chromatographic purity A) (HPLC): 3) 3′-Chlorobenzoic acid / Chromatographic purity A) (HPLC): 2) 3′-Chloro-2-bromopropiophenone: LOQ 0.05%; for Chromatographic purity A) (HPLC): 1) 3′-Chloropropiophenone / Chromatographic purity A) (HPLC): 3) 3′-Chlorobenzoic acid: LOD 0.01%; for Chromatographic purity A) (HPLC): 2) 3′-Chloro-2-bromopropiophenone: LOD 0.04%; for Description: specification white or almost white crystalline powder; for Assay (HPLC): on d.b.; for Chromatographic purity B) (HPLC): 6) total unknown impurities: sum of all impurity peak areas
Experimental: The stability of bupropion HBr was studied over a longer term under conditions meant to approximate standard storage or shelf conditions. Samples were prepared in closed containers and subjected to long-term storage at 25° C.+2° C. and 60%+5% RH in a stability chamber. The samples were analyzed by HPLC prior to being placed in the stability chamber (time 0) and after 3 months and 6 months. The amounts of the main degradation products present at time 0 were compared with the amounts present at 3 months and 6 months. As shown in Table 77-79 three different batches of bupropion HBr were tested. As in Example 10 each sample was tested under two HPLC assay conditions to identify 6 impurities or groups of impurities as described in Example 10.

Br.CC(NC(C)(C)C)C(=O)c1cccc(Cl)c1 (stereo not shown) [Bupropion•HBr D00895]
Chromatographic purity (HPLC: A + B) Total impurities (3 months): 0.1%
Water content (K.F.) (3 months): 0.04%
Chromatographic purity B) (HPLC): 4) 2-N-(tert-Butyl)-aminopropiophenone (3 months): 4) 0.03%
Chromatographic purity B) (HPLC): 5) single unknown impurity (each) (3 months): 5) 0.04%
Chromatographic purity A) (HPLC): 1) 3′-Chloropropiophenone (3 months): 1) n.q.
Chromatographic purity A) (HPLC): 3) 3′-Chlorobenzoic acid (3 months): 3) n.q.
Chromatographic purity A) (HPLC): 2) 3′-Chloro-2-bromopropiophenone (3 months): 2) n.d.
Description (3 months): conform
Chromatographic purity (HPLC: A + B) Total impurities (6 months): 0.1%
Water content (K.F.) (6 months): 0.05%
Chromatographic purity B) (HPLC): 4) 2-N-(tert-Butyl)-aminopropiophenone (6 months): 4) 0.05%
Chromatographic purity B) (HPLC): 5) single unknown impurity (each) (6 months): 5) n.q.
Chromatographic purity A) (HPLC): 1) 3′-Chloropropiophenone (6 months): 1) 0.05%
Chromatographic purity A) (HPLC): 3) 3′-Chlorobenzoic acid (6 months): 3) n.q.
Chromatographic purity A) (HPLC): 2) 3′-Chloro-2-bromopropiophenone (6 months): 2) n.d.
Assay (HPLC) (6 months): 100.1%
Description (6 months): conform
Chromatographic purity B) (HPLC): 6) total unknown impurities (6 months): 6) 0.02%
Chromatographic purity (HPLC: A + B) Total impurities (9 months): n.q.
Water content (K.F.) (9 months): 0.05%
Chromatographic purity B) (HPLC): 4) 2-N-(tert-Butyl)-aminopropiophenone (9 months): 4) n.d.
Chromatographic purity B) (HPLC): 5) single unknown impurity (each) (9 months): 5) n.q.
Chromatographic purity A) (HPLC): 1) 3′-Chloropropiophenone (9 months): 1) n.q.
Chromatographic purity A) (HPLC): 3) 3′-Chlorobenzoic acid (9 months): 3) n.q.
Chromatographic purity A) (HPLC): 2) 3′-Chloro-2-bromopropiophenone (9 months): 2) n.d.
Description (9 months): conform
Chromatographic purity B) (HPLC): 6) total unknown impurities (9 months): 6) n.q.
Chromatographic purity (HPLC: A + B) Total impurities (12 months): 0.2%
Water content (K.F.) (12 months): 0.04%
Chromatographic purity B) (HPLC): 4) 2-N-(tert-Butyl)-aminopropiophenone (12 months): 4) 0.05%
Chromatographic purity B) (HPLC): 5) single unknown impurity (each) (12 months): 5) 0.07%
Chromatographic purity A) (HPLC): 1) 3′-Chloropropiophenone (12 months): 1) n.d.
Chromatographic purity A) (HPLC): 3) 3′-Chlorobenzoic acid (12 months): 3) 0.05%
Chromatographic purity A) (HPLC): 2) 3′-Chloro-2-bromopropiophenone (12 months): 2) n.d.
Description (12 months): conform
Chromatographic purity B) (HPLC): 6) total unknown impurities (12 months): 6) 0.07%
Chromatographic purity (HPLC: A + B) Total impurities (time 0): 0.1%
Water content (K.F.) (time 0): 0.04%
Chromatographic purity B) (HPLC): 4) 2-N-(tert-Butyl)-aminopropiophenone (time 0): 4) 0.04%
Chromatographic purity B) (HPLC): 5) single unknown impurity (each) (time 0): 5) 0.04%
Chromatographic purity A) (HPLC): 1) 3′-Chloropropiophenone (time 0): 1) n.d.
Chromatographic purity A) (HPLC): 3) 3′-Chlorobenzoic acid (time 0): 3) n.q.
Chromatographic purity A) (HPLC): 2) 3′-Chloro-2-bromopropiophenone (time 0): 2) n.d.
Assay (HPLC) (time 0): 99.2%
Description (time 0): conform
Chromatographic purity B) (HPLC): 6) total unknown impurities (time 0): 6) 0.04%

Br.CC(NC(C)(C)C)C(=O)c1cccc(Cl)c1 (stereo not shown) [Bupropion•HBr D00896]
Chromatographic purity (HPLC: A + B) Total impurities (3 months): 0.1%
Water content (K.F.) (3 months): 0.04%
Chromatographic purity B) (HPLC): 4) 2-N-(tert-Butyl)-aminopropiophenone (3 months): 4) 0.03%
Chromatographic purity B) (HPLC): 5) single unknown impurity (each) (3 months): 5) 0.04%
Chromatographic purity A) (HPLC): 1) 3′-Chloropropiophenone (3 months): 1) n.q.
Chromatographic purity A) (HPLC): 3) 3′-Chlorobenzoic acid (3 months): 3) n.q.
Chromatographic purity A) (HPLC): 2) 3′-Chloro-2-bromopropiophenone (3 months): 2) n.d.
Description (3 months): conform
Chromatographic purity B) (HPLC): 6) total unknown impurities (3 months): 6) 0.05%
Chromatographic purity (HPLC: A + B) Total impurities (6 months): 0.1%
Water content (K.F.) (6 months): 0.04%
Chromatographic purity B) (HPLC): 4) 2-N-(tert-Butyl)-aminopropiophenone (6 months): 4) 0.04%
Chromatographic purity B) (HPLC): 5) single unknown impurity (each) (6 months): 5) n.q.
Chromatographic purity A) (HPLC): 1) 3′-Chloropropiophenone (6 months): 1) 0.05%
Chromatographic purity A) (HPLC): 3) 3′-Chlorobenzoic acid (6 months): 3) n.q.
Chromatographic purity A) (HPLC): 2) 3′-Chloro-2-bromopropiophenone (6 months): 2) n.d.
Assay (HPLC) (6 months): 100.5%
Description (6 months): conform
Chromatographic purity B) (HPLC): 6) total unknown impurities (6 months): 6) n.q.
Chromatographic purity (HPLC: A + B) Total impurities (9 months): n.q.
Water content (K.F.) (9 months): 0.04%
Chromatographic purity B) (HPLC): 4) 2-N-(tert-Butyl)-aminopropiophenone (9 months): 4) n.d.
Chromatographic purity B) (HPLC): 5) single unknown impurity (each) (9 months): 5) n.q.
Chromatographic purity A) (HPLC): 1) 3′-Chloropropiophenone (9 months): 1) n.q.
Chromatographic purity A) (HPLC): 3) 3′-Chlorobenzoic acid (9 months): 3) n.q.
Chromatographic purity A) (HPLC): 2) 3′-Chloro-2-bromopropiophenone (9 months): 2) n.d.
Description (9 months): conform
Chromatographic purity B) (HPLC): 6) total unknown impurities (9 months): 6) n.q.
Chromatographic purity (HPLC: A + B) Total impurities (12 months): 0.1%
Water content (K.F.) (12 months): 0.03%
Chromatographic purity B) (HPLC): 4) 2-N-(tert-Butyl)-aminopropiophenone (12 months): 4) 0.05%
Chromatographic purity B) (HPLC): 5) single unknown impurity (each) (12 months): 5) 0.07%
Chromatographic purity A) (HPLC): 1) 3′-Chloropropiophenone (12 months): 1) n.d.
Chromatographic purity A) (HPLC): 3) 3′-Chlorobenzoic acid (12 months): 3) n.q.
Chromatographic purity A) (HPLC): 2) 3′-Chloro-2-bromopropiophenone (12 months): 2) n.d.
Assay (HPLC) (12 months): 100.3%
Description (12 months): conform
Chromatographic purity B) (HPLC): 6) total unknown impurities (12 months): 6) 0.07%
Chromatographic purity (HPLC: A + B) Total impurities (time 0): 0.1%
Water content (K.F.) (time 0): 0.06%
Chromatographic purity B) (HPLC): 4) 2-N-(tert-Butyl)-aminopropiophenone (time 0): 4) 0.04%
Chromatographic purity B) (HPLC): 5) single unknown impurity (each) (time 0): 5) 0.05%
Chromatographic purity A) (HPLC): 1) 3′-Chloropropiophenone (time 0): 1) n.d.
Chromatographic purity A) (HPLC): 3) 3′-Chlorobenzoic acid (time 0): 3) n.q.
Chromatographic purity A) (HPLC): 2) 3′-Chloro-2-bromopropiophenone (time 0): 2) n.d.
Assay (HPLC) (time 0): 99.3%
Description (time 0): conform
Chromatographic purity B) (HPLC): 6) total unknown impurities (time 0): 6) 0.05%

Br.CC(NC(C)(C)C)C(=O)c1cccc(Cl)c1 (stereo not shown) [Bupropion•HBr D00894]
Chromatographic purity (HPLC: A + B) Total impurities (3 months): 0.1%
Water content (K.F.) (3 months): 0.05%
Chromatographic purity B) (HPLC): 4) 2-N-(tert-Butyl)-aminopropiophenone (3 months): 4) 0.03%
Chromatographic purity B) (HPLC): 5) single unknown impurity (each) (3 months): 5) 0.04%
Chromatographic purity A) (HPLC): 1) 3′-Chloropropiophenone (3 months): 1) n.q.
Chromatographic purity A) (HPLC): 3) 3′-Chlorobenzoic acid (3 months): 3) n.q.
Chromatographic purity A) (HPLC): 2) 3′-Chloro-2-bromopropiophenone (3 months): 2) n.d.
Description (3 months): conform
Chromatographic purity (HPLC: A + B) Total impurities (6 months): 0.1%
Water content (K.F.) (6 months): 0.06%
Chromatographic purity B) (HPLC): 4) 2-N-(tert-Butyl)-aminopropiophenone (6 months): 4) 0.05%
Chromatographic purity B) (HPLC): 5) single unknown impurity (each) (6 months): 5) n.q.
Chromatographic purity A) (HPLC): 1) 3′-Chloropropiophenone (6 months): 1) 0.05%
Chromatographic purity A) (HPLC): 3) 3′-Chlorobenzoic acid (6 months): 3) n.q.
Chromatographic purity A) (HPLC): 2) 3′-Chloro-2-bromopropiophenone (6 months): 2) n.d.
Assay (HPLC) (6 months): 100.2%
Description (6 months): conform
Chromatographic purity (HPLC: A + B) Total impurities (9 months): n.q.
Water content (K.F.) (9 months): 0.05%
Chromatographic purity B) (HPLC): 4) 2-N-(tert-Butyl)-aminopropiophenone (9 months): 4) n.d.
Chromatographic purity B) (HPLC): 5) single unknown impurity (each) (9 months): 5) n.q.
Chromatographic purity A) (HPLC): 1) 3′-Chloropropiophenone (9 months): 1) n.q.
Chromatographic purity A) (HPLC): 3) 3′-Chlorobenzoic acid (9 months): 3) n.q.
Chromatographic purity A) (HPLC): 2) 3′-Chloro-2-bromopropiophenone (9 months): 2) n.d.
Description (9 months): conform
Chromatographic purity B) (HPLC): 6) total unknown impurities (9 months): 6) n.q.
Chromatographic purity (HPLC: A + B) Total impurities (12 months): 0.2%
Water content (K.F.) (12 months): 0.05%
Chromatographic purity B) (HPLC): 4) 2-N-(tert-Butyl)-aminopropiophenone (12 months): 4) 0.05%
Chromatographic purity B) (HPLC): 5) single unknown impurity (each) (12 months): 5) 0.05%
Chromatographic purity A) (HPLC): 1) 3′-Chloropropiophenone (12 months): 1) n.d.
Chromatographic purity A) (HPLC): 3) 3′-Chlorobenzoic acid (12 months): 3) 0.05%
Chromatographic purity A) (HPLC): 2) 3′-Chloro-2-bromopropiophenone (12 months): 2) n.d.
Assay (HPLC) (12 months): 99.6%
Description (12 months): conform
Chromatographic purity B) (HPLC): 6) total unknown impurities (12 months): 6) 0.07%
Chromatographic purity (HPLC: A + B) Total impurities (time 0): 0.1%
Water content (K.F.) (time 0): 0.05%
Chromatographic purity B) (HPLC): 4) 2-N-(tert-Butyl)-aminopropiophenone (time 0): 4) 0.04%
Chromatographic purity B) (HPLC): 5) single unknown impurity (each) (time 0): 5) 0.04%
Chromatographic purity A) (HPLC): 1) 3′-Chloropropiophenone (time 0): 1) n.d.
Chromatographic purity A) (HPLC): 3) 3′-Chlorobenzoic acid (time 0): 3) n.q.
Chromatographic purity A) (HPLC): 2) 3′-Chloro-2-bromopropiophenone (time 0): 2) n.d.
Assay (HPLC) (time 0): 99.6%
Description (time 0): conform
